From patent US20230219904A1 (SYNGENTA CROP PROTECTION AG, priority 2020, published 2023)

Key:
Format in all cases: in vivo
Settings in all cases: applied at 125 g/ha, evaluated after 13 days
[1] = system: Amaranthus retoflexus (AMARE); test: Post-emergence herbicidal glasshouse test (Table B1)
Procedure: (§1) Seeds of a variety of test species are sown in standard soil in pots (Lolium perenne (LOLPE), Amaranthus retoflexus (AMARE), Abutilon theophrasti (ABUTH), Setaria faberi (SETFA), Echinochloa crus-galh (ECHCG), Ipomoea hederacea (IPOHE)). After cultivation for one day (pre-emergence) or after 8 days cultivation (post-emergence) under controlled conditions in a glasshouse (at 24/16° C., day/night; 14 hours light; 65% humidity), the plants are sprayed with an aqueous spray solution derived from the formulation of the technical active ingredient in acetone/water (50:50) solution containing 0.5% Tween 20 (polyoxyethelyene sorbitan monolaurate, CAS RN 9005-64-5). Compounds are applied at 500 g/h unless otherwise indicated. The test plants are then grown in a glasshouse under controlled conditions in a glasshouse (at 24/16° C., day/night; 14 hours light; 65% humidity) and watered twice daily. After 13 days for pre and post-emergence, the test is evaluated for the percentage damage caused to the plant. The biological activities are shown in the following table on a five-point scale (5=80-100%; 4=60-79%; 3=40-59%; 2=20-39%; 1=0-19%).

[2] = system: Echinochloa crus-galh (ECHCG); test: as above
Procedure: as §1

[3] = system: Ipomoea hederacea (IPOHE); test: as above
Procedure: as §1

[4] = system: Setaria faberi (SETFA); test: as above
Procedure: as §1

[5] = system: Abutilon theophrasti (ABUTH); test: Pre-emergence herbicidal glasshouse test (Table B1)
Procedure: as §1

[6] = system: Amaranthus retoflexus (AMARE); test: as above
Procedure: as §1

[7] = system: Echinochloa crus-galh (ECHCG); test: as above
Procedure: as §1

[8] = system: Ipomoea hederacea (IPOHE); test: as above
Procedure: as §1

[9] = system: Setaria faberi (SETFA); test: as above
Procedure: as §1

SMILES	POST Application AMARE, percentage damage on five-point scale [1]	POST Application ECHCG, percentage damage on five-point scale [2]	POST Application IPOHE, percentage damage on five-point scale [3]	POST Application SETFA, percentage damage on five-point scale [4]	PRE Application ABUTH, percentage damage on five-point scale [5]	PRE Application AMARE, percentage damage on five-point scale [6]	PRE Application ECHCG, percentage damage on five-point scale [7]	PRE Application IPOHE, percentage damage on five-point scale [8]	PRE Application SETFA, percentage damage on five-point scale [9]
CCC(=O)Nc1c(OC(F)(F)F)ccc(C(=O)Nc2nnnn2C)c1C [Compound 1.078]	5 (5=80-100%)	5 (5=80-100%)	4 (4=60-79%)	5 (5=80-100%)	5 (5=80-100%)	5 (5=80-100%)	5 (5=80-100%)	4 (4=60-79%)	4 (4=60-79%)
Cc1c(C(F)F)c(C(=O)Nc2c(OC(F)F)ccc(C(=O)Nc3nnnn3C)c2Cl)nn1C [Compound 1.052]	5 (5=80-100%)	4 (4=60-79%)	4 (4=60-79%)	5 (5=80-100%)	5 (5=80-100%)	5 (5=80-100%)	5 (5=80-100%)	4 (4=60-79%)	5 (5=80-100%)
CCC(=O)N(CC)c1c(OC(F)F)ccc(C(=O)Nc2nnnn2C)c1C(F)(F)F [Compound 1.091]	4 (4=60-79%)	5 (5=80-100%)	3 (3=40-59%)	4 (4=60-79%)	5 (5=80-100%)	5 (5=80-100%)	5 (5=80-100%)	3 (3=40-59%)	4 (4=60-79%)
Cc1cc(C(=O)Nc2c(OC(F)(F)F)ccc(C(=O)Nc3nnnn3C)c2Cl)nn1C [Compound 1.046]	5 (5=80-100%)	5 (5=80-100%)	5 (5=80-100%)	5 (5=80-100%)	5 (5=80-100%)	5 (5=80-100%)	5 (5=80-100%)	5 (5=80-100%)	5 (5=80-100%)
CCn1nnnc1NC(=O)c1ccc(OC(F)(F)F)c(NC(=O)C(C)(F)F)c1Cl [Compound 1.060]	5 (5=80-100%)	4 (4=60-79%)	4 (4=60-79%)	5 (5=80-100%)	5 (5=80-100%)	5 (5=80-100%)	4 (4=60-79%)	3 (3=40-59%)	4 (4=60-79%)
